The values below come from patent US8877748B2, “Heterocyclic fused anthraquinone derivatives, manufacturing method and pharmaceutical composition using thereof” (National Defense Medical Center, priority 2012, dated 2014).

The subject of the first assay is PC-3 prostate cancer cell line. As to the kind of experiment: SRB assay cell viability, PC-3 prostate cancer cell line. Format: cell-based, human. As to conditions: Homo sapiens, PC-3 prostate cancer cell line, Table II prints no unit, μM printed, read-out: SRB assay: 50% inhibition of cancer cell proliferation of sample concentration (IC50) of PC-3 prostate cancer cell line.
Consider `CCNc1cc2c(c3nsnc13)C(=O)c1ccccc1C2=O` [C13, 4-ethylamino anthra[2,1-c][1,2,5] thiadiazol-6,11-dione], for which the IC50 was determined as 2.97 µM.

With `Cc1cccc(Nc2cc3c(c4nsnc24)C(=O)c2ccccc2C3=O)c1` [C62, 4-(m-tolylamino)anthra[2,1-c][1,2,5] thiadiazol-6,11-dione], the IC50 was 0.29 µM.

Regarding `CCCSc1cc2c(c3nsnc13)C(=O)c1ccccc1C2=O` [C17, 4-(n-propylthio)-anthra[2,1-c][1,2,5] thiadiazol-6,11-dione], the IC50 is 3.69 µM.

Take `O=C1c2ccccc2C(=O)c2c1cc(Sc1cccc(Br)c1)c1nsnc21` [C40, 4-(3-bromophenylthio)anthra[2,1-c][1,2,5] thiadiazol-6,11-dione]: the IC50 came out at 12.4 µM.

As to `O=C1c2ccccc2C(=O)c2c1cc(N1CCCCC1)c1nsnc21` [C11, 4-(piperidine-1-yl)anthra[2,1-c][1,2,5] thiadiazol-6,11-dione], the IC50 worked out at 1.38 µM.

For the compound `Cc1cc(C)cc(Sc2cc3c(c4nsnc24)C(=O)c2ccccc2C3=O)c1` [C49, 4-(3,5-dimethyl-phenyl-thio)anthra[2,1-c] [1,2,5]thiadiazol-6,11-dione], the IC50 is over 15 µM.

Turning to `O=C1c2ccccc2C(=O)c2c1cc(Nc1cccc(Cl)c1)c1nsnc21` [C63, 4-(3-chloro-phenylamino)anthra[2,1-c] [1,2,5]thiadiazol-6,11-dione], the IC50 amounted to 2.28 µM.

As for `CCc1ccccc1Sc1cc2c(c3nsnc13)C(=O)c1ccccc1C2=O` [C51, 4-(2-ethyl-phenylthio)anthra[2,1-c][1,2,5] thiadiazol-6,11-dione], the IC50 is over 15 µM.

Consider `O=C1c2ccccc2C(=O)c2c1cc(SCc1ccccc1Cl)c1nsnc21` [C53, 4-(2-chloro-benzylthio)anthra[2,1-C] [1,2,5]thiadiazol-6,11-dione], for which the IC50 was found to be 5.84 µM.

Turning to `CC(C)c1ccc(Sc2cc3c(c4nsnc24)C(=O)c2ccccc2C3=O)cc1` [C26, 4-(4-isopropyl-phenyl-thio)anthra[2,1-c] [1,2,5]thiadiazol-6,11-dione], the IC50 is over 15 µM.

With `O=C1c2ccccc2C(=O)c2c1cc(Sc1cc(Cl)c(Cl)cc1Cl)c1nsnc21` [C34, 4-(2,4,5-trichloro-phenylthio)anthra[2,1-C] [1,2,5]thiadiazol-6,11-dione], the IC50 was over 15 µM.

Regarding `O=C1c2ccccc2C(=O)c2c1cc(Sc1ccc(Br)cc1)c1nsnc21` [C24, 4-(4-bromo-phenyl-thio)anthra[2,1-c] [1,2,5]thiadiazol-6,11-dione], the IC50 is over 15 µM.

Regarding `COc1ccccc1Sc1cc2c(c3nsnc13)C(=O)c1ccccc1C2=O` [C23, 4-(2-methoxy-phenyl-thio)anthra[2,1-c] [1,2,5]thiadiazol-6,11-dione], the IC50 was over 15 µM.

`CC(C)c1ccccc1Sc1cc2c(c3nsnc13)C(=O)c1ccccc1C2=O` [C52, 4-(2-isopropyl-phenyl-thio)anthra[2,1-c] [1,2,5]thiadiazol-6,11-dione]: the IC50 was over 15 µM.

The same assay, now with this note: PC-3 prostate cancer cell line, Table II prints no unit, μM printed, read-out: SRB assay: 50% inhibition of cancer cell proliferation of sample concentration (IC50) of PC-3 prostate cancer cell line.
`CC(C)(C)c1ccc(Sc2cc3c(c4nsnc24)C(=O)c2ccccc2C3=O)cc1` [C31, 4-(4-tert-butyl-alkylphenyl-thio)anthra [2,1-c][1,2,5]thiadiazol-6,11-dione]: the IC50 is over 15 µM.

With “4-(2-fluoro-phenyl thio)anthra[2,1-c] [1,2,5]thiadiazol oxazole-6,11-dione [C33]”, the IC50 was over 15 µM.

“4-(2-mercapto-phenyl-thio)anthra[2,1-c] [1,2,5]thiadiazol oxazole-6,11-dione [C36]”: the IC50 was over 15 µM.

Consider `Cc1cccc(Sc2cc3c(c4nsnc24)C(=O)c2ccccc2C3=O)c1` [C47, 4-(m-phenylmethylthio)anthra[2,1-c] [1,2,5]thiadiazol-6,11-dione], for which the IC50 is over 15 µM.

The assay is the same for the next values; noted with them: PC-3 prostate cancer cells, read-out: IC50 in PC-3 prostate cancer cells (cell viability analysis).
For “4-(2-fluoro-phenyl thio)anthra[2,1-c] [1,2,5]thiadiazol oxazole-6,11-dione [C33]”, the IC50 stood at 5.48 µM.

On to “4-(phenethylthiol)anthra[2,1-c][1,2,5] thiadiazol-6,11-dione [C29]”, for which the IC50 stood at 19 µM.
